Earlier results in US20100028426A1, “TIME-SPECIFIC DELAYED/PULSATILE RELEASE DOSAGE FORMS” (POLICHEM S.A., priority 2007, published 2010).

How the values were obtained:
[1] = in vivo

CCN(C(C)=O)c1cccc(-c2ccnc3c(C#N)cnn23)c1 [Zaleplon]
time to sleep onset (TSO) (sleep disorders; in vivo): effective in shortening the time to sleep onset
total sleep time and number of awakening (sleep disorders; oral immediate release formulation taken at bed time): neither increases total sleep time, nor decreases the number of awakening
time to peak concentration (t max) [1]: approximately 1 hour
